# Results reported in ChEMBL document CHEMBL4364300, “Boron in drug design: Recent advances in the development of new therapeutic agents” (Eur J Med Chem, 2019).
# Assays:
# Streptococcus pneumoniae = assay: Antibacterial activity against Streptococcus pneumoniae ATCC 49619; type: functional
# Enterococcus faecium = assay: Antibacterial activity against Enterococcus faecium ATCC 568; type: functional
# [1] = Inhibition of bacterial beta lactamase AmpC; parameters: species or system Bacteria
# [2] = Inhibition of bacterial beta lactamase CTX-M-9; parameters: species or system Bacteria
# [3] = system: Mycobacterium tuberculosis; assay: Antimycobacterial activity against Mycobacterium tuberculosis H37Rv after 14 days by broth micro-dilution method; type: functional; conditions: 336 h
# THP-1 = assay: Cytotoxicity against human THP1 cells after 72 hrs by SRB assay; type: functional, cell-based; conditions: THP-1, 72 h
# Leishmania major = assay: Antileishmanial activity Leishmania major MHOM/SA/85/JISH118 after 72 hrs by giemsa staining based light microscopic analysis; type: functional, organism-based; conditions: MHOM/SA/85/JISH118, 72 h
# Leishmania panamensis = assay: Antileishmanial activity Leishmania panamensis MHOM/PA/67/BOYNTON after 72 hrs by giemsa staining based light microscopic analysis; type: functional, organism-based
# Leishmania aethiopica = assay: Antileishmanial activity Leishmania aethiopica MHOM/ET/84/KH after 72 hrs by giemsa staining based light microscopic analysis; type: functional, organism-based
# Leishmania mexicana = assay: Antileishmanial activity Leishmania mexicana MNYC/BZ/62/M379 after 72 hrs by giemsa staining based light microscopic analysis; type: functional, organism-based; conditions: MNYC/BZ/62/M379, 72 h
# Leishmania tropica [4] = assay: Antileishmanial activity Leishmania tropica MHOM/IR/2013/HTD4 after 72 hrs by giemsa staining based light microscopic analysis; type: functional, organism-based; conditions: MHOM/IR/2013/HTD4, 72 h
# Leishmania tropica [5] = assay: Antileishmanial activity Leishmania tropica AO21/p after 72 hrs by giemsa staining based light microscopic analysis; type: functional, organism-based
# [6] = Inhibition of bacterial beta lactamase CTX-M-15; parameters: species or system Bacteria
# [7] = Inhibition of bacterial beta lactamase KPC-2; parameters: species or system Bacteria
# GH3 = assay: Cytotoxicity against rat GH3 cells; type: functional, cell-based
# [8] = Inhibition of Enterobacter cloacae beta lactamase P99 after 5 mins
# [9] = Inhibition of bacterial beta lactamase OXA-10 after 5 mins; parameters: species or system Bacteria
# [10] = Inhibition of bacterial beta lactamase OXA-48 after 5 mins; parameters: species or system Bacteria
# [11] = Inhibition of bacterial beta lactamase CTX-M-15 after 5 mins; parameters: species or system Bacteria
# Beta-lactamase TEM = Beta-lactamase TEM (Bacteria, UniProt P62593); assay: Inhibition of bacterial beta lactamase TEM-1 after 5 mins
# Chain of Beta-lactamase TEM (P62593 whole entry): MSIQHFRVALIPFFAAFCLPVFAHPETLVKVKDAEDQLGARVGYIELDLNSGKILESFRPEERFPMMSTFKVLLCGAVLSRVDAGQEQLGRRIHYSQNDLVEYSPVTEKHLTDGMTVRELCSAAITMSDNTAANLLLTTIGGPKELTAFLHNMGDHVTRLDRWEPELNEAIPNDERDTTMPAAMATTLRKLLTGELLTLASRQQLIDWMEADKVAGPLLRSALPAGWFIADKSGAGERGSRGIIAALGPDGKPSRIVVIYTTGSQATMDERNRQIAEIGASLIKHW
# [12] = Inhibition of bacterial beta lactamase OXA-24 after 5 mins; parameters: species or system Bacteria
# [13] = Inhibition of Pseudomonas aeruginosa beta lactamase AmpC after 5 mins
# [14] = Inhibition of bacterial beta lactamase KPC-2 after 5 mins; parameters: species or system Bacteria
# A2780 = assay: Antiproliferative activity against human A2780 cells by MTT assay; type: functional, cell-based
# [15] = Inhibition of bacterial beta lactamase VIM-2; parameters: species or system Bacteria
# [16] = Inhibition of bacterial beta lactamase NDM-1; parameters: species or system Bacteria
# [17] = system: Trypanosoma brucei brucei; assay: Anti-parasitic activity against trypomastigote form of Trypanosoma brucei brucei 427 after 24 hrs by resazurin dye-based assay; type: functional, organism-based; conditions: Trypanosoma brucei, 427, 24 h
# Trichomonas vaginalis = assay: Antiprotozoal activity against Trichomonas vaginalis G3; type: functional, organism-based
# [18] = system: Mycobacterium tuberculosis; assay: […] activity against Mycobacterium tuberculosis; type: functional
# HepG2 = assay: Antiproliferative activity against human HepG2 cells by MTT assay; type: functional, cell-based
# Hep 3B2 = assay: Antiproliferative activity against human Hep3B cells by MTT assay; type: functional, cell-based
# SK-OV-3 = assay: Antiproliferative activity against human SKOV3 cells by MTT assay; type: functional, cell-based
# MDA-MB-231 [19] = assay: Antiproliferative activity against human MDA-MB-231 cells by MTT assay; type: functional, cell-based
# HCT-116 = assay: Antiproliferative activity against human HCT116 cells by MTT assay; type: functional, cell-based
# [20] = target: Proteasome Macropain subunit MB1 (Homo sapiens, UniProt P28074); assay: Inhibition of human chymotrypsin-like activity of 20S proteasome (unknown origin)
# Chain of Proteasome Macropain subunit MB1 (P28074 whole entry): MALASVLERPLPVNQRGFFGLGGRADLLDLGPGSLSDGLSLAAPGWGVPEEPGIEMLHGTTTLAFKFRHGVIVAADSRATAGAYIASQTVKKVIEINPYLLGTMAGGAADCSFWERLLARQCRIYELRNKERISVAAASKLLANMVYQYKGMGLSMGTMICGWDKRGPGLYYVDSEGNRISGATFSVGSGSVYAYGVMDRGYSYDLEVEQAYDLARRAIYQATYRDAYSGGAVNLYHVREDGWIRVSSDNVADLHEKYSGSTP
# MDA-MB-231 [21] = assay: Antiproliferative activity against human MDA-MB-231 cells after 72 hrs; type: functional, cell-based; conditions: MDA-MB-231, 72 h
# [22] = target: 3',5'-cyclic-AMP phosphodiesterase 4B (Homo sapiens, UniProt Q07343); assay: Inhibition of […] human recombinant PDE4B catalytic domain (152 to 484 residues)
# Chain of 3',5'-cyclic-AMP phosphodiesterase 4B (Q07343 whole entry, the tested form may be a part): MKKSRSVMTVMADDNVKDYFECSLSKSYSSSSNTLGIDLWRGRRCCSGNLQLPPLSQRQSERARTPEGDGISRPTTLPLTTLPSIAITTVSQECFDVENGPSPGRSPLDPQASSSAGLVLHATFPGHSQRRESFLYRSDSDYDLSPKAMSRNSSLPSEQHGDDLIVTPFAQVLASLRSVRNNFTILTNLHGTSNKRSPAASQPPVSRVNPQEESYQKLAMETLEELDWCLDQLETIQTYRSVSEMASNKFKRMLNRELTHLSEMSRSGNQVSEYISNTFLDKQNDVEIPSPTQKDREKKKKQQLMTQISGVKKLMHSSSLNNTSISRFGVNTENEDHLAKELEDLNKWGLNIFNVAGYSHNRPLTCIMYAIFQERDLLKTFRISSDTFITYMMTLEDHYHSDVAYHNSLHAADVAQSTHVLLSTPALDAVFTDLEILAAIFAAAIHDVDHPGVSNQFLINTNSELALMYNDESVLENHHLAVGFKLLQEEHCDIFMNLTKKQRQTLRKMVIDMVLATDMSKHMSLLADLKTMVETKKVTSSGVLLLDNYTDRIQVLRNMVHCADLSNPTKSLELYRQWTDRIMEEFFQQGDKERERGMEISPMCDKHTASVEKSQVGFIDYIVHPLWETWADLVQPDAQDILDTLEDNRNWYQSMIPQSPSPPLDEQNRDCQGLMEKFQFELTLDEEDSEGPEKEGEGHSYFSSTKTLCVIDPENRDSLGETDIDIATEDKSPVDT
# [23] = Inhibition of bacterial beta lactamase OXA-24; parameters: species or system Bacteria
# Plasmodium falciparum [24] = assay: Antimalarial activity against Plasmodium falciparum 3D7 after 48 hrs by [3H]-hypoxanthine incorporation assay; type: functional, organism-based
# Plasmodium falciparum [25] = assay: Antimalarial activity against Plasmodium falciparum W2 after 48 hrs by [3H]-hypoxanthine incorporation assay; type: functional, organism-based
# Plasmodium falciparum [26] = assay: Antimalarial activity against Plasmodium falciparum Dd2 after 48 hrs by [3H]-hypoxanthine incorporation assay; type: functional, organism-based
# Plasmodium falciparum [27] = assay: Antimalarial activity against Plasmodium falciparum K1 after 48 hrs by [3H]-hypoxanthine incorporation assay; type: functional, organism-based
# Plasmodium falciparum [28] = assay: Antimalarial activity against Plasmodium falciparum HB3 after 48 hrs by [3H]-hypoxanthine incorporation assay; type: functional, organism-based
# Plasmodium falciparum [29] = assay: Antimalarial activity against Plasmodium falciparum FCR-3 after 48 hrs by [3H]-hypoxanthine incorporation assay; type: functional, organism-based; conditions: FCR-3/Gambia
# Plasmodium falciparum [30] = assay: Antimalarial activity against Plasmodium falciparum TM90C2B after 48 hrs by [3H]-hypoxanthine incorporation assay; type: functional, organism-based
# Plasmodium falciparum [31] = assay: Antimalarial activity against Plasmodium falciparum Ugandan field isolates after 48 hrs by [3H]-hypoxanthine incorporation assay; type: functional, organism-based
# Plasmodium falciparum [32] = assay: Antimalarial activity against Plasmodium falciparum AN3661 derived from malaria patient; type: functional
# Plasmodium berghei = assay: Antimalarial activity against Plasmodium berghei […]; type: functional
structure (smiles),measurement,setting,value
CC[C@H]1OC(=O)[C@H](C)[C@@H](O[C@H]2C[C@@](C)(OC)[C@@H](OC(=O)NCCCNC(=O)CCc3cccc4c3B(O)OC4)[C@H](C)O2)[C@H](C)[C@@H](O[C@@H]2O[C@H](C)C[C@H](N(C)C)[C@H]2O)[C@](C)(O)C[C@@H](C)CN(C)[C@H](C)[C@H]2OC(=O)O[C@@]21C,MIC,Streptococcus pneumoniae,0.13 µg/mL
same,MIC,Enterococcus faecium,0.13 µg/mL
O=C(O)/C=C/c1c(B(O)O)sc2ccccc12,Ki,[1],40 to 90 nM
same,Ki,[2],40 to 90 nM
Cc1ccc2c(c1-c1ccccc1C(N)=O)B(O)OC2,MIC99,[3],5 µM
same,IC50,THP-1,1800 nM
CN(C)CCOc1cc(NC(=O)c2ccc3c(c2)COB3O)ccc1Cl,EC50,Leishmania major,2000 to 23000 nM
same,EC50,Leishmania panamensis,2000 to 23000 nM
same,EC50,Leishmania aethiopica,2000 to 23000 nM
same,EC50,Leishmania mexicana,2000 to 23000 nM
same,EC50,Leishmania tropica [4],2000 to 23000 nM
same,EC50,Leishmania tropica [5],2000 to 23000 nM
CC(C)(C)OC(=O)Nc1cccc2cc(B(O)O)sc12,IC50,[6],2300 to 4500 nM
same,IC50,[7],2300 to 4500 nM
CCOC(=O)/C(C#N)=C/c1ccc(B(O)O)cc1,IC50,GH3,140 nM
NCc1ccc2sc(B(O)O)cc2c1,IC50,[1],400 nM
Cc1c(Oc2nc(N)ns2)cc2c(c1C)[C@@H](CC(=O)O)OB2O,IC50,[8],5 to 3900 nM
same,IC50,[9],5 to 3900 nM
same,IC50,[10],5 to 3900 nM
same,IC50,[11],5 to 3900 nM
same,IC50,Beta-lactamase TEM,5 to 3900 nM
same,IC50,[12],5 to 3900 nM
same,IC50,[13],5 to 3900 nM
same,IC50,[14],5 to 3900 nM
O=C(Nc1ccc2c(c1)B(O)OC2)c1cn(-c2ccccn2)nn1,EC50,Leishmania major,2000 to 23000 nM
same,EC50,Leishmania panamensis,2000 to 23000 nM
same,EC50,Leishmania aethiopica,2000 to 23000 nM
same,EC50,Leishmania mexicana,2000 to 23000 nM
same,EC50,Leishmania tropica [4],2000 to 23000 nM
same,EC50,Leishmania tropica [5],2000 to 23000 nM
OB1OC(N2CCOCC2)c2cc(F)ccc21 (stereo unspecified),IC50,A2780,14800 nM
Nc1ccc2c(c1Br)B(O)OC2,MIC99,[3],1.9 µM
CC(C)(C)OC(=O)c1cccc2cc(B(O)O)sc12,IC50,[6],2300 to 4500 nM
same,IC50,[7],2300 to 4500 nM
same,IC50,[15],20200 to 27700 nM
same,IC50,[16],20200 to 27700 nM
O=C(/C=C/c1ccc2c(c1)OCO2)Nc1ccc2c(c1)B(O)OC2,IC50,[17],86 nM
same,IC50,Trichomonas vaginalis,22800 nM
same,MIC99,[18],40.7 µM
Cc1cnn(B(n2cc(C)cn2)n2cc(C)cn2)c1,IC50,HepG2,1250 nM
same,IC50,Hep 3B2,15200 nM
O=C(/C=C/c1ccc2c(c1)B(O)OC2)c1ccc(F)cc1,IC50,SK-OV-3,1400 to 2800 nM
same,IC50,MDA-MB-231 [19],1400 to 2800 nM
same,IC50,HCT-116,1400 to 2800 nM
CCc1cccc(Nc2ccn(CCC(=O)N[C@@H](CC(C)C)B(O)O)c(=O)c2)c1,Ki,[20],17 nM
CSC[C@H](NC(=O)c1cc(Cl)ccc1Cl)C(=O)N[C@@H](CC(C)C)B1OCCNCCO1,IC50,MDA-MB-231 [21],8.4 nM
same,IC50,[20],4.6 nM
CC(C)OCCOc1nc(Oc2ccc3c(c2)COB3O)ccc1C#N,IC50,[22],2.1 to 8.4 nM
O=C(O)c1cccc2cc(B(O)O)sc12,IC50,[23],23000 nM
same,IC50,[15],20200 to 27700 nM
same,IC50,[16],20200 to 27700 nM
O=C(O)CCc1cccc2c1B(O)OC2,IC50,Plasmodium falciparum [24],32 nM
same,IC50,Plasmodium falciparum [25],32 nM
same,IC50,Plasmodium falciparum [26],32 nM
same,IC50,Plasmodium falciparum [27],32 nM
same,IC50,Plasmodium falciparum [28],32 nM
same,IC50,Plasmodium falciparum [29],32 nM
same,IC50,Plasmodium falciparum [30],32 nM
same,IC50,Plasmodium falciparum [31],64 nM
same,ED90,Plasmodium falciparum [32],0.34 mg/kg
same,ED90,Plasmodium berghei,0.57 mg/kg
